Test results as given in patent publication US20030133908A1, “Treatment for intracranial tumors” (priority 2002, published 2003).

Assays:
rat microglia [1] = experiment: TNF-α production by cultured rat microglia (rat-specific TNF-α ELISA); format: cell-based; details: in the presence of TGF-β
Description: (§1) The ability of cultured rat microglia to produce the soluble cytotoxic agents, TNF-αand nitric oxide, was examined. Rat microglia were harvested and plated in a 96-well plate at a density of 5×10^5 cells/well in 200 μl of serum-free CellGro complete medium (MediaTech, Inc.). In some wells, the medium was supplemented with different concentrations of LPS alone (from E. coli serotype […]; Sigma) while others were supplemented with a combination of LPS and recombinant rat IFN-γ (100 U/ml; R&D Systems). After 24 hours of incubation at 37° C., TNF-α protein in the supernatant of each well was quantified using a Cytoscreen rat-specific TNF-α ELISA kit (Biosource Intl., Camarillo, Calif.), and NO (nitrite) levels in the supernatant of each well were determined using the Griess reaction. All experiments were carried out in triplicate.

rat microglia [2] = experiment: Nitric oxide (nitrite) production by cultured rat microglia (Griess reaction); format: cell-based; details: in the presence of TGF-β
Description: as §1

RG2 glioma cells = experiment: Microglia-mediated tumor cytotoxicity on co-cultured RG2 cells (modified MTT reduction assay); format: cell-based, rat; details: L-NMA exposure
Description: Co-cultures of microglia and RG2 cells were established and cytotoxicity assays were carried out as follows: isolated rat microglial cells (5×10^5 cells/well) were added to a 96-well plate containing 200 μl/well of complete medium. After allowing the cells to adhere for one hour, the medium was aspirated and the appropriate number of RG2 cells (from 2.5×10^4 to 1×10^6 to yield effector:target [E:T] ratios from 0.5:1 to 20:1) was added to the wells in 200 μl of fresh, complete medium. As controls, glioma cells and microglia were cultured separately in other wells of the plate. Microglia-mediated tumor cytotoxicity was measured using a modified MTT reduction assay.
All experiments were performed in quadruplicate. Some co-culture experiments were carried out on glass cover slips to provide visual documentation of cytotoxicity. The cover slips were immersed in paraformaldehyde solution and then subjected to cresyl violet staining.
To determine the contributions of TNF-α and NO to the tumoricidal activity of microglia, MTT cytotoxicity assays were carried out in the presence of TNF-α binding protein (TNF-bp; an inhibitor of TNF-α) and N^G-monomethyl-L-arginine (L-NMA; an inhibitor of NO production).
The effects of TGF-β on microglial tumor cytotoxicity were also investigated in MTT cytotoxicity assays in the presence of TGF-β.

Compound	microglial production of TNF-α (rat microglia [1])	microglial production of NO (rat microglia [2])	killing of co-cultured RG2 by LPS/IFN-γ stimulated microglia (RG2 glioma cells)
TGF-β	concurrent decreases	concurrent decreases	
CNC(=N)NCCC[C@H](N)C(=O)O [L-NMA, N^G-monomethyl-L-arginine]			significantly inhibited
